“And” between values parts separate entries of the source, which are not always exact repeats. Equal values may be shown once. Read-outs that look alike come from different tables or passages of the source.
How the values were obtained:
[1] = biological target: recombinant Wip1 (Homo sapiens, UniProt O15297); settings: for relative effectiveness as Wip1 inhibitor (in words): at the concentration of 0.25 μM;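 for all read-outs here: recombinant His-tagged Wip1 dephosphorylating a phosphoserine peptide for 1 h at 30 °C, read by fluorescence quench (ex 560, em 590 nm), signal rising with dephosphorylation, DMSO-only reactions as control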
Text: Phosphatase activity of Wip1 was monitored with IQ™ Phosphatase Assay Kit (Pierce, Rockford, Ill.). […] At the end of phosphatase reaction, the labeled peptide population contains a mixture of phosphorylated and nonphosphorylated peptide species. The iron-containing compound binds specifically to the phosphorylated peptide present and its fluorescence is quenched. The observed relative fluorescence units increase in proportion to the extent of dephosphorylation of the phosphopeptide. The standard phosphatase assay was performed by incubating 0.2 μg recombinant Wip1 in the buffer, containing 20 mM MOPS, pH 7.0, 20 mM MgCl2, and 30 μM of phosphoserine peptide substrate (LRRApSLG) at 30° C. for 1 hour. The reaction was terminated by addition of 60 μl IQ™ Working Solution. Fluorescent intensity was measured on the Fluorometer at 560/590 ex/em. Compounds (2 ml) from a chemical library of potential Wip1 inhibitors dissolved in 50% DMSO were added to fmal concentration of 10, 1, 0.5, or 0.2 μM. Control reactions contained only 6% DMSO.
Wip1 activity was measured in the presence of 1990 chemical compounds, 10 μM final concentration each.

[2] = tested on: phosphatase PP2A
[3] = biological target: T1, phosphoserine peptide substrate (LRRApSLG)
T1 chain: LRRASLG

[4] = compound at 0.25 μm, DMSO control 740
[5] = compound at 0.5 μm, DMSO control 740
[6] = compound at 1 μm, DMSO control 725
[7] = compound at 10 μm, DMSO control 1400

O=[N+]([O-])c1ccc(S(=O)(=O)Cc2ccccc2)c2nonc12 [Compound A]
Wip1 Activity [1, 4]: 745 light units @ 590 nm
Wip1 Activity [1, 5]: 725 light units @ 590 nm
Wip1 Activity [1, 6]: 250 light units @ 590 nm
Wip1 Activity [1, 7]: 0 light units @ 590 nm

O=C(O)C=Cc1ccc[c]([Sb](=[O])([OH])[OH])c1 [Compound B]
Wip1 Activity [1, 4]: 740 light units @ 590 nm
Wip1 Activity [1, 5]: 723 light units @ 590 nm
Wip1 Activity [1, 6]: 575 light units @ 590 nm
Wip1 Activity [1, 7]: 0 light units @ 590 nm

Nc1nc(Sc2ccc([N+](=O)[O-])c3nonc23)c2nc[nH]c2n1 [Compound C]
Wip1 Activity [1, 4]: 745 light units @ 590 nm
Wip1 Activity [1, 5]: 750 light units @ 590 nm
Wip1 Activity [1, 6]: 610 light units @ 590 nm
Wip1 Activity [1, 7]: 0 light units @ 590 nm

CN(C)CN1CSC(=S)N(CN(C)C)C1 [Compound D]
Wip1 Activity [1, 4]: 750 light units @ 590 nm
Wip1 Activity [1, 5]: 740 light units @ 590 nm
Wip1 Activity [1, 6]: 595 light units @ 590 nm
Wip1 Activity [1, 7]: 0 light units @ 590 nm

CC(=NN=C([S-])SCc1ccccc1)c1ccccn1.[Cl-].[Cu+2] [Compound F]
Wip1 Activity [1, 4]: 740 light units @ 590 nm
Wip1 Activity [1, 5]: 695 light units @ 590 nm
Wip1 Activity [1, 6]: 100 light units @ 590 nm
Wip1 Activity [1, 7]: 0 light units @ 590 nm

Nc1nc([S][Hg][c]2cc([N+](=O)[O-])ccc2O)c2ncn(C3OC(CO)C(O)C3O)c2n1 (centres unmarked) [Compound H]
Wip1 Activity [1, 4]: 675 light units @ 590 nm
Wip1 Activity [1, 5]: 690 light units @ 590 nm
Wip1 Activity [1, 6]: 225 light units @ 590 nm
Wip1 Activity [1, 7]: 0 light units @ 590 nm

O=C(O)c1c(Br)c(Br)c(Br)c(Br)c1C1c2ccc(O)cc2Oc2cc(O)ccc21 [Compound I]
Wip1 Activity [1, 4]: 625 light units @ 590 nm
Wip1 Activity [1, 5]: 710 light units @ 590 nm
Wip1 Activity [1, 6]: 250 light units @ 590 nm
Wip1 Activity [1, 7]: 0 light units @ 590 nm

O=C(O)c1cc[c]([Hg][S]c2ncnc3nc[nH]c23)cc1 [Compound K]
Wip1 Activity [1, 4]: 630 light units @ 590 nm
Wip1 Activity [1, 5]: 680 light units @ 590 nm
Wip1 Activity [1, 6]: 300 light units @ 590 nm
Wip1 Activity [1, 7]: 0 light units @ 590 nm

CC1=C(Br)C(=O)C(C)=C(Br)C1=O [Compound L]
decrease of the activity of PP2A ([2]; 1 μM final concentration): 5%
Phosphatase Activity (PP2A) ([2]; Compound L at 1 μM final concentration, DMSO control 760): 690 light units @ 590 nm
activity of Wip1 in the presence of compound (in words) ([1]; 1 μM final concentration): nearly not detectable
Phosphatase Activity (Wip1) ([1]; Compound L at 1 μM final concentration, DMSO control 500): 5 light units @ 590 nm
relative effectiveness as Wip1 inhibitor (in words) [1]: most effective inhibitors
Wip1 Activity [1, 4]: 375 light units @ 590 nm
Wip1 Activity [1, 5]: 220 light units @ 590 nm
Wip1 Activity [1, 6]: 60 light units @ 590 nm
Wip1 Activity [1, 7]: 0 light units @ 590 nm

Nc1cc[c]([Hg][S]c2nc(N)nc3c2ncn3C2OC(CO)C(O)C2O)cc1 (centres unmarked) [Compound M]
relative effectiveness as Wip1 inhibitor (in words) [1]: most effective inhibitors
Wip1 Activity [1, 4]: 525 light units @ 590 nm
Wip1 Activity [1, 5]: 400 light units @ 590 nm
Wip1 Activity [1, 6]: 145 light units @ 590 nm
Wip1 Activity [1, 7]: 0 light units @ 590 nm

O=C1C(Cl)=C(Nc2ccc(S(=O)(=O)Nc3ccccn3)cc2)C(=O)c2ccccc21 [Compound N]
Wip1 Activity [1]: 645 light units @ 590 nm and 710 light units @ 590 nm and 550 light units @ 590 nm
Wip1 Activity [1, 7]: 0 light units @ 590 nm

B1: recombinant full-size human Wip1 enzyme with His-Tag on the NH2 terminus (protein)
chain: MAGLYSLGVSVFSDQGGRKYMEDVTQIVVEPEPTAEEKPSPRRSLSQPLPPRPSPAALPGGEVSGKGPAVAAREARDPLPDAGASPAPSRCCRRRSSVAFFAVCDGHGGREAAQFAREHLWGFIKKQKGFTSSEPAKVCAAIRKGFLACHLAMWKKLAEWPKTMTGLPSTSGTTASVVIIRGMKMYVAHVGDSGVVLGIQDDPKDDFVRAVEVTQDHKPELPKERERIEGLGGSVMNKSGVNRVVWKRPRLTHNGPVRRSTVIDQIPFLAVARALGDLWSYDFFSGEFVVSPEPDTSVHTLDPQKHKYIILGSDGLWNMIPPQDAISMCQDQEEKKYLMGEHGQSCAKMLVNRALGRWRQRMLRADNTSAIVICISPEVDNQGNFTNEDELYLNLTDSPSYNSQETCVMTPSPCSTPPVKSLEEDPWPRVNSKDHIPALVRSNAFSENFLEVSAEIARENVQGVVIPSKDPEPLEENCAKALTLRIHDSLNNSLPIGLVPTNSTNTVMDQKNLKMSTPGQMKAQEIERTPPTNFKRTLEESNSGPLMKKHRRNGLSRSSGAQPASLPTTSQRKNSVKLTMRRRLRGQKKIGNPLLHQHRKTVCVC
Phosphatase Activity (light units @ 590 nm), DMSO control (light units @ 590 nm) [3]: 500
Wip1 Activity (light units @ 590 nm), DMSO control (light units @ 590 nm) [3]: 1400 and 725 and 740

— patent publication US20040167189A1, “Materials and methods for inhibiting Wip1” (The Government of the U.S.A., as Represented by the …, priority 2002, published 2004)
